Results from patent publication US20250282798A1, “HETEROARYL-SUBSTITUTED BICYCLIC COMPOUND AND USE THEREOF” (Medshine Discovery Inc., priority 2022, published 2025).

Experiments:
human GLK = human GLK (Homo sapiens (Human), UniProt Q8IVH8); assay: Kinase activity assay using ADP-Glo method, GLK; format: biochemical; conditions: GLK enzyme concentration 8 nM; ATP 20 μM
Experimental: The IC50 value was assayed by the kinase activity assay using ADP-Glo method to evaluate the inhibitory ability of a test compound on human GLK.
Enzyme buffer conditions: 50 mM Hepes (pH 7.5), 10 mM MgCl2, 1 mM EGTA, 0.01% Brij35, 2 mM DTT.
Preparation of the mixture of kinase and substrate: the concentration of GLK in the reaction solution was 8 nM, the concentration of ATP was […], and the concentration of MBP was 0.05 mg/mL.
(§1) Assay steps: A compound was diluted 4-fold with DMSO in a dilution plate, with a final initial concentration of […] and 10 concentration gradient points. The compound was diluted 50-fold into the kinase reaction buffer, and the mixture was shaken on a shaker for 20 minutes. The kinase was prepared with the enzyme reaction buffer. 2 μL of kinase was added to each well of a reaction plate. 1 μL of the diluted compound in the buffer was added to each well. The plate was sealed with a sealing film, centrifuged at 1000 g for 30 seconds, and placed at room temperature for 10 minutes. The mixed solution of ATP/MBP was prepared with the enzyme reaction buffer. 2 μL of the mixed solution of ATP/MBP was added to the reaction plate. The plate was sealed with a sealing film, and centrifuged at 1000 g for 30 seconds. The mixture in the plate was reacted at room temperature for 60 minutes. 4 μL of ADP-Glo was transferred to the 384 reaction plate, and centrifuged at 1000 rpm/min for 1 min. The plate was incubated at 25° C. for 40 min. 8 μL of detection solution was transferred to the 384 reaction plate, and centrifuged at 1000 rpm/min for 1 min. The plate was incubated at 25° C. for 40 min. The RLU (relative luminescence unit) signal was read with a BMG microplate reader, and the signal intensity was used to characterize the activity of the kinase.
(§2) The kinase activity data were expressed as the comparison of the kinase activity of a group with a test compound and the kinase activity of the blank group (containing only DMSO). The IC50 value was obtained by curve fitting using Prism software (GraphPad7.0).

human HPK1 = human HPK1 (Homo sapiens (Human), UniProt Q92918); assay: Kinase activity assay using ADP-Glo method (Method 2); format: biochemical; conditions: HPK1 enzyme concentration 0.1 nM; ATP concentration 10 μM
Sequence of human HPK1 (Q92918 whole entry): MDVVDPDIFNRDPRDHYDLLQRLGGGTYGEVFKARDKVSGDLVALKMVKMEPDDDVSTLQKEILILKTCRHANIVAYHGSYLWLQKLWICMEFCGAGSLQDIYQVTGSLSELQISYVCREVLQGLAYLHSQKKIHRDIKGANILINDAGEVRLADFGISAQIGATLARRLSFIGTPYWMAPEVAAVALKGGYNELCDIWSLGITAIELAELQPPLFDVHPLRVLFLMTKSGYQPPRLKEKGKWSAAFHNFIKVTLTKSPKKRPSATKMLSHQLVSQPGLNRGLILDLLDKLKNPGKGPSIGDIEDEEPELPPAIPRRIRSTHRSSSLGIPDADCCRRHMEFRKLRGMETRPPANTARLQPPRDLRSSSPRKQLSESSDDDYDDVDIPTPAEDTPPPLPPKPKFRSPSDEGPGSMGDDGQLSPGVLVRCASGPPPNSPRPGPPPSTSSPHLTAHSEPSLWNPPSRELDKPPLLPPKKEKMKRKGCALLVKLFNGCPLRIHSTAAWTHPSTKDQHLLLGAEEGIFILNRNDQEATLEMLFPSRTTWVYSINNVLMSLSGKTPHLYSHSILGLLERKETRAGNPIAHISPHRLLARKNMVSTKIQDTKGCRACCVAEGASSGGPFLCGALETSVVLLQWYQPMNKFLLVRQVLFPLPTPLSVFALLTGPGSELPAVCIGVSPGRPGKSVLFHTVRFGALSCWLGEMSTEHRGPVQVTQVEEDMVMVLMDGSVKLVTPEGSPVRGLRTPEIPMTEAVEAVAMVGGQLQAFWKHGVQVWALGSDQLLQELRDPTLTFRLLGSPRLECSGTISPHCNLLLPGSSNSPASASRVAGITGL
Experimental: Method 2: The IC50 value was assayed by the kinase activity assay using ADP-Glo method to evaluate the inhibitory ability of a test compound on human HPK1.
Enzyme buffer conditions: 50 mM Hepes (pH 7.5), 10 mM MgCl2, 1 mM EGTA, 0.01% Brij35, 2 mM DTT. […]
as §1, with “4 μL of ADP-Glo was transferred to the 384 reaction plate, and centrifuged at 1000 rpm/min for 1 min.” left out, “8 μL of detection solution was transferred to the 384 reaction plate, and centrifuged at 1000 rpm/min for 1 min.” left out
as §2

[1] = In vitro metabolic stability in human liver microsomes; format: in vitro ADME; conditions: 1 μM compound, 0.5 mg/mL protein
Experimental: The in vitro metabolic stability of the compounds of the present disclosure in human was investigated by the metabolic stability in human liver microsomes.
Assay conditions: 1 μM of a compound was incubated with human liver microsomes supplemented with NADPH regeneration system at 37° C. for a certain period of time up to 60 minutes. The concentration of the compound in the resulting sample was assayed by LC-MS/MS method.
Assay procedure: 96-well incubation plates were named T0, T5, T15, T30, T45, T60, Blank60 and NCF60, respectively. The reaction time corresponding to the incubation plates were 0, 5, 15, 30, 45 and 60 minutes, respectively. No test sample or control compound was added to the Blank60 plate, and samples were taken after 60 minutes of incubation. Potassium phosphate buffer was used instead of NADPH regeneration system solution in the NCF60 plate, and the plate was incubated for 60 minutes. All the samples of the time points were from a single well.
5 μL of a test sample or control sample working solution and 100 μL of microsome working solution (the concentration of liver microsome protein was 0.5 mg/mL) were added to the T0, T5, T15, T30, T45, T60 and NCF60 plates, respectively. Only microsome working solution was added to the Blank60 plate. Then, the Blank60, T5, T15, T30, T45 and T60 plates, except TO and NCF60 plates, were placed in a 37° C. water bath, and preincubated for about 10 minutes.
180 μL of stop solution (the stop solution was a solution of tolbutamide (100 ng/mL) in acetonitrile and methanol (95:5, V/V)) was firstly added to the sample of TO plate, and then the NADPH regeneration system working solution was added.
50 μL of potassium phosphate buffer was added to each well of the NCF60 plate, and the plate was incubated for 60 minutes.
After the pre-incubation of Blank60, T5, T15, T30, T45 and T60 plates, 44 μL of NADPH regeneration system working solution was added to each sample well to initiate the reaction. Therefore, for the sample wells containing a test sample or control sample working solution, the final concentration of the reaction was […], the concentration of liver microsomes was 0.5 mg/mL, and the final concentrations of DMSO and acetonitrile in the reaction system were 0.01% (v/v) and 0.99% (v/v), respectively.
After being incubated for an appropriate time (e.g., 5, 15, 30, 45, and 60 min), 180 μL of stop solution was added to each well of the test sample and control sample of Blank60, T5, T15, T30, T45, T60, and NCF60 plates, respectively, to terminate the reaction.
All sample plates were shaken and centrifuged for 10 min. 80 μL of the supernatant of a test sample was taken and diluted into 240 μL of a mixture of acetonitrile and water (1:9, V/V) containing 0.1% formic acid for LC-MS/MS analysis.
By calculating the corresponding time point and the remaining percentage of a compound, the half-life T1/2 and clearance rate CLint(liver) of the compound in human liver microsome metabolism were obtained.

Sequence of human GLK (Q8IVH8 whole entry): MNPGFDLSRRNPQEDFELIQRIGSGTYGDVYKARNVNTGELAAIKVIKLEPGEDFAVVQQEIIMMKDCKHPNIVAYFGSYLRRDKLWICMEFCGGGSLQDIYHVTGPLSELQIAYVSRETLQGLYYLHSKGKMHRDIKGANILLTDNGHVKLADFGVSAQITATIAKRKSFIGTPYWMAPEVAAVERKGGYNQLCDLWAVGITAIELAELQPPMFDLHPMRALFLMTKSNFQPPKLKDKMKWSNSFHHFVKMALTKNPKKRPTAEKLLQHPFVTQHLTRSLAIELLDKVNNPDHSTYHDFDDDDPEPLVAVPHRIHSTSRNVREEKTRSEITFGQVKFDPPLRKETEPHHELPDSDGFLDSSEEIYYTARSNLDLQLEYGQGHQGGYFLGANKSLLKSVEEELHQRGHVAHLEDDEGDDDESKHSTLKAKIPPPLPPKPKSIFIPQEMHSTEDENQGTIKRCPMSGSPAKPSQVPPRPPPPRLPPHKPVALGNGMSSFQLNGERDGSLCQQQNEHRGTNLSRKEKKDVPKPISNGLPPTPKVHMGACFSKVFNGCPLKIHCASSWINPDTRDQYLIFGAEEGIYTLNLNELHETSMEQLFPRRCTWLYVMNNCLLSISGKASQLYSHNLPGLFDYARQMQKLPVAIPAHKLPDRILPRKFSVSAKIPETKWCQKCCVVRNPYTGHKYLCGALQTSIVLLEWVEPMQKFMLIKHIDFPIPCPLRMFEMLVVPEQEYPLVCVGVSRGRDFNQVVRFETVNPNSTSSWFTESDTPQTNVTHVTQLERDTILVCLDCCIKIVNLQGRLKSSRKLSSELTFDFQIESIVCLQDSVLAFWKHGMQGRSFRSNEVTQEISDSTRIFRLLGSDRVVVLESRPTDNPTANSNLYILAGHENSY

## Cn1ccc2c(-c3ncc(Nc4ccc5c(n4)OC[C@@H]4COCCN54)c4c3CNC4=O)ccnc21 [Compound 4]
Human GLK
  IC50: 594 nM
Human HPK1
  IC50: 0.62 nM
[1]
  CLint(liver): 35 mL/min/kg
  T1/2: 36 min

## O=C1NCc2c(-c3cnc4cc(F)ccn34)ccc(Nc3ccc4c(n3)OC[C@@H]3COCCN43)c21 [Compound 8]
Human GLK
  IC50: 154 nM
Human HPK1
  IC50: 2 nM
[1]
  CLint scaled at 1 μM: 37 mL/min/kg
  half-life at 1 μM: 34 min
